Experimental data: paper PMC7878925, “Continuous stimulation of dual-function peptide PGLP-1-VP inhibits the morbidity and mortality of NOD mice through anti-inflammation and immunoregulation” (Scientific Reports, 2021)
Where no end group is shown, it is not given here.

Legend:
[1] = target: human GLP-1R (Homo sapiens, UniProt P43220); assay: cell-based
Protocol: Human embryonic kidney (HEK-293) cells were obtained from ATCC and cultured in growing media (DMEM: 25 mM glucose, 10% FBS, 100 µg/mL penicillin and 100 µg/mL streptomycin).

[2] = test system: NOD mice; details: 210 nmol/kg s.c. twice weekly for 24 weeks
Protocol: Female 4-week-old NOD mice were obtained from Beijing HFK Bioscience Co. Ltd. (Beijing, China). NOD mice were randomly divided into 4 groups: vehicle, PGLP-1, VP and PGLP-1-VP, and each group was subcutaneously injected twice weekly with placebo [Lipofundin[32] (B. Braun Melsungen AG, Melsungen, Germany)] or 210 nmol/kg of peptides for 24 weeks. Body weight and blood glucose were measured once every 2 weeks until the end of the observation period. NOD mice were considered diabetic when blood glucose concentrations exceeded 200 mg/dL for 2 consecutive measurements. The onset time and death time of diabetic mice were calculated. Indexes of dead mice were shown as the last blood glucose or weight data. Blood samples were collected retro-orbital and centrifuged, and then serum was collected. Serum C-peptide levels and transforming growth factor-β1 (TGF-β1) were measured by enzyme-linked immunosorbent kits (Jiancheng Bio-Engineering Institute Co., Ltd. Nanjing, China).

[3] = test system: DPP-IV; assay: in vitro; details: human, isolated enzyme dpp iv
Protocol: Stability test for DPP-IV in vitro was performed as previously described.

Chain of human GLP-1R (P43220 24-463): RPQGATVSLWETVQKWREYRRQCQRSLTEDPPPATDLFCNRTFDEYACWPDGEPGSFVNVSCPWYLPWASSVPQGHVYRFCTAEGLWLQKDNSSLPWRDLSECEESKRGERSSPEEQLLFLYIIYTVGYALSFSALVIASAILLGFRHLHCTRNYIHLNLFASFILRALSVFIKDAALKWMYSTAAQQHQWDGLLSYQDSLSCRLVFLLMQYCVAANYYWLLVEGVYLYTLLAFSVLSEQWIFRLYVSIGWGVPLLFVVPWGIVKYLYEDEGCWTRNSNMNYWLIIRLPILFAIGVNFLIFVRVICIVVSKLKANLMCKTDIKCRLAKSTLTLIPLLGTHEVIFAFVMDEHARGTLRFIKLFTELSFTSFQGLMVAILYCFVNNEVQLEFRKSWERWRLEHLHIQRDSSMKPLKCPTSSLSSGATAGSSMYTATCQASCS

| remaining at 10 h, 10 µM [3] [%] | Compound | EC50 [1] [µM] | body weights compared to controls [2] |
| --- | --- | --- | --- |
|  | HGEGTFTSDVSSYLEGQAAKEFIAWLVKGRGPGVLGGGCRCIPALDSLTPANED (cysteines drawn unpaired) [PGLP-1-VP] | 0.139 ± 0.037 | not affected |
| 6.3 | CC[C@H](C)[C@H](NC(=O)[C@H](Cc1ccccc1)NC(=O)[C@H](CCC(=O)O)NC(=O)[C@H](CCCCN)NC(=O)[C@H](C)NC(=O)[C@H](C)NC(=O)[C@H](CCC(N)=O)NC(=O)CNC(=O)[C@H](CCC(=O)O)NC(=O)[C@H](CC(C)C)NC(=O)[C@H](Cc1ccc(O)cc1)NC(=O)[C@H](CO)NC(=O)[C@H](CO)NC(=O)[C@@H](NC(=O)[C@H](CC(=O)O)NC(=O)[C@H](CO)NC(=O)[C@@H](NC(=O)[C@H](Cc1ccccc1)NC(=O)[C@@H](NC(=O)CNC(=O)[C@H](CCC(=O)O)NC(=O)[C@H](C)NC(=O)[C@@H](N)Cc1c[nH]cn1)[C@@H](C)O)[C@@H](C)O)C(C)C)C(=O)N[C@@H](C)C(=O)N[C@@H](Cc1c[nH]c2ccccc12)C(=O)N[C@@H](CC(C)C)C(=O)N[C@H](C(=O)N[C@@H](CCCCN)C(=O)NCC(=O)N[C@@H](CCCN=C(N)N)C(=O)NCC(=O)O)C(C)C [GLP-1, Glucagon-like peptide-1] |  |  |
